Source: ChEMBL document CHEMBL1909046, “DrugMatrix in vitro pharmacology data”

Tests used:
[1] = molecular target: D(3) dopamine receptor (Homo sapiens, UniProt P35462); assay: DRUGMATRIX: Dopamine D3 radioligand binding (ligand: [3H] Spiperone); format: cell membranes, CHO, Membrane; details: cho
[2] = molecular target: C-C chemokine receptor type 2 (Homo sapiens, UniProt P41597); format: cell membranes, Membrane; details: cho-k1; also: in other assays of this panel Not Active means under 50% inhibition at 10 µM
[3] = DRUGMATRIX: GABAA, Chloride Channel, TBOB radioligand binding (ligand: [3H] TBOB); format: cell membranes, Rattus norvegicus, Wistar, Cerebral cortex, Membrane; details: Not Active = under 50% inhibition at 10 µM
[4] = DRUGMATRIX: Imidazoline I2, Central radioligand binding (ligand: [3H] Idazoxan); format: cell membranes, Rattus norvegicus, Wistar, Cerebral cortex, Membrane; details: Not Active = under 50% inhibition at 10 µM
[5] = molecular target: Cytochrome P450 3A4 (Homo sapiens, UniProt P08684); details: bti-tn-5b1-4; also: in other assays of this panel Not Active means under 50% inhibition at 10 µM
[6] = molecular target: Kappa-type opioid receptor (Homo sapiens, UniProt P41145); assay: DRUGMATRIX: Opiate kappa (OP2, KOP) radioligand binding (ligand: [3H] Diprenorphine); format: cell membranes, HEK293, Membrane; details: hek293; Not Active = under 50% inhibition at 10 µM
Kappa-type opioid receptor, sequence (P41145 whole entry): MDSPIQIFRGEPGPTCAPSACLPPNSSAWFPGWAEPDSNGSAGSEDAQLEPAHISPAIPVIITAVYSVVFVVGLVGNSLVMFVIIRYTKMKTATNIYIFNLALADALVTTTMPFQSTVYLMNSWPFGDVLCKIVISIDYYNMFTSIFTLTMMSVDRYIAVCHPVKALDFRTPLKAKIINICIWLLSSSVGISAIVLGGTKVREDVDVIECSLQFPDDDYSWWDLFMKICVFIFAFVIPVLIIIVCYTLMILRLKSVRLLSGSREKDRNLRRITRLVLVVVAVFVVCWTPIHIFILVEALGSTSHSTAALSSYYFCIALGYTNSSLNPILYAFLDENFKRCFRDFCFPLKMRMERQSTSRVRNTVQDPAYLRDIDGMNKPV

D(3) dopamine receptor, sequence (P35462 whole entry): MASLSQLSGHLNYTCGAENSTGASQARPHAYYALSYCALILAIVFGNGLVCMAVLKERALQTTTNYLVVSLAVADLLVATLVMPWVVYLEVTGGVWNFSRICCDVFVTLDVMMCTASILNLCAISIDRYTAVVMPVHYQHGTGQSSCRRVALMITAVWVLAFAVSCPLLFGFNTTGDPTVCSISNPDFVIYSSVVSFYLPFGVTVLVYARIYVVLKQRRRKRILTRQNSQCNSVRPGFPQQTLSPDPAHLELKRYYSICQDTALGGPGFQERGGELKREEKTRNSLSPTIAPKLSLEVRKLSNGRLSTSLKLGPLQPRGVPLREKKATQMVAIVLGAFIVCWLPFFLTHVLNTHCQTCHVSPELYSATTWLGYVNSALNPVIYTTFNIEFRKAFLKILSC
Cytochrome P450 3A4, sequence (P08684 whole entry): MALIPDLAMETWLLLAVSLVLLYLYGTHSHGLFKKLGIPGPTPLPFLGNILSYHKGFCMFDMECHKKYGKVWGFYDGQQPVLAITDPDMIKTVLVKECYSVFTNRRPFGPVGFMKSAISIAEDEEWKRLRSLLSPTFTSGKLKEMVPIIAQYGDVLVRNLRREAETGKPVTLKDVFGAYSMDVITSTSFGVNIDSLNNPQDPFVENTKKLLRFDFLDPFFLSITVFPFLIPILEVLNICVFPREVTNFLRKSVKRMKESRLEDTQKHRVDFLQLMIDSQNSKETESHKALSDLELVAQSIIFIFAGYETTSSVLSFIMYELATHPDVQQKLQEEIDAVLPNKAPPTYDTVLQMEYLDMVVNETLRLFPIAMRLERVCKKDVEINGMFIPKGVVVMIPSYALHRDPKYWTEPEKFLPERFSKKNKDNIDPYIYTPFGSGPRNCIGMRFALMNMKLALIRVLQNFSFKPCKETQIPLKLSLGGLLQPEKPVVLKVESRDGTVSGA
C-C chemokine receptor type 2, sequence (P41597 whole entry): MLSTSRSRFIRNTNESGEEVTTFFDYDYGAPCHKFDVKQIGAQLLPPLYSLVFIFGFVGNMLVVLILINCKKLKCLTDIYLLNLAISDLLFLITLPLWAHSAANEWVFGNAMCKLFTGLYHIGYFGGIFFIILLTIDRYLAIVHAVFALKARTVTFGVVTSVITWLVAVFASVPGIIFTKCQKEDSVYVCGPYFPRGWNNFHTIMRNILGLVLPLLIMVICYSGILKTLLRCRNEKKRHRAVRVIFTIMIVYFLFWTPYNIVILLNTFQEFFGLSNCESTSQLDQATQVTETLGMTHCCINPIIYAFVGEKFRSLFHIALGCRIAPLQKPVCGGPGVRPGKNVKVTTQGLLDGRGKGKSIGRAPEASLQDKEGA

SMILES	IC50 [1]	IC50 [2]	IC50 [3]	Ki [3]	IC50 [4]	Ki [4]	IC50 [5]	Ki [5]	IC50 [6]	Ki ([4]; read-out: Ki)
Cc1c(OCC(F)(F)F)ccnc1C[S+]([O-])c1nc2ccccc2[nH]1 (stereo not given) [LANSOPRAZOLE]	Not Active	Not Active	Not Active	Not Active	Not Active	Not Active	Not Active	Not Active	Not Active	
O=c1cc(N2CCOCC2)oc2c(-c3ccccc3)cccc12 [LY-294002]	Not Active	Not Active	Not Active	Not Active	Not Active	Not Active	Not Active	Not Active	Not Active	
COc1ccc2[nH]cc(CCNC(C)=O)c2c1 [MELATONIN]	Not Active	Not Active	Not Active	Not Active	Not Active	Not Active	Not Active	Not Active	Not Active	
NC(=O)C[S+]([O-])C(c1ccccc1)c1ccccc1 (stereo not given) [MODAFINIL]	Not Active	Not Active	Not Active	Not Active	Not Active	Not Active	Not Active	Not Active	Not Active	
CCN(CC)CCOCCC1=CCC2CC1C2(C)C (stereo not given) [MYRTECAINE]	Not Active	Not Active	Not Active	Not Active	Not Active	Not Active	Not Active	Not Active	Not Active	
O=C(O)c1cccnc1Nc1cccc(C(F)(F)F)c1 [NIFLUMIC ACID]	Not Active	Not Active	Not Active	Not Active	Not Active	Not Active	Not Active	Not Active	Not Active	
O=C(N/N=C/c1ccc([N+](=O)[O-])o1)c1cc([N+](=O)[O-])cc([N+](=O)[O-])c1O [NIFURSOL]	Not Active	Not Active	Not Active	Not Active	Not Active	Not Active	Not Active	Not Active	Not Active	
COC(=O)Nc1nc2ccc(C(=O)c3cccs3)cc2[nH]1 [NOCODAZOLE]	Not Active	Not Active	Not Active	Not Active	Not Active	Not Active	Not Active	Not Active	Not Active	
C#CC1(O)CC[C@H]2[C@@H]3CCC4=CC(=O)CC[C@@H]4[C@H]3CC[C@@]21CC (stereo not given in full) [NORGESTREL]	Not Active	Not Active	Not Active	Not Active	Not Active	Not Active	Not Active	Not Active	Not Active	
COC(=O)Nc1nc2ccc([S+]([O-])c3ccccc3)cc2[nH]1 (stereo not given) [OXFENDAZOLE]	Not Active	Not Active	Not Active	Not Active	Not Active	Not Active	Not Active	Not Active	Not Active	
CC(=O)O[C@H]1C(=O)[C@@]2(C)[C@H]([C@H](OC(=O)c3ccccc3)[C@]3(O)C[C@H](OC(=O)[C@H](O)[C@@H](NC(=O)c4ccccc4)c4ccccc4)C(C)=C1C3(C)C)[C@]1(OC(C)=O)CO[C@@H]1C[C@@H]2O [PACLITAXEL]	Not Active	Not Active	Not Active	Not Active	Not Active	Not Active	Not Active	Not Active	Not Active	
CCn1cc(C(=O)O)c(=O)c2cnc(N3CCCC3)nc21 [PIROMIDIC ACID]	Not Active	Not Active	Not Active	Not Active	Not Active	Not Active	Not Active	Not Active	Not Active	
C[n+]1ccccc1/C=N/O.[Cl-] [PRALIDOXIME CHLORIDE]	Not Active	Not Active	Not Active	Not Active	Not Active	Not Active	Not Active	Not Active	Not Active	
COc1cc2nc(N3CCN(C(=O)c4ccco4)CC3)nc(N)c2cc1OC [PRAZOSIN]	Not Active	Not Active	Not Active	Not Active			Not Active	Not Active	Not Active	0.633 µM
C[C@]12C=CC(=O)C=C1CC[C@@H]1[C@@H]2[C@@H](O)C[C@@]2(C)[C@H]1CC[C@]2(O)C(=O)CO [PREDNISOLONE]	Not Active	Not Active	Not Active	Not Active	Not Active	Not Active	Not Active	Not Active	Not Active	
CC(=O)[C@H]1[C@H](C#N)C[C@H]2[C@@H]3CC=C4C[C@@H](O)CC[C@]4(C)[C@H]3CC[C@@]21C [PREGNENOLONE CARBONITRILE]	Not Active	Not Active	Not Active	Not Active	Not Active	Not Active	Not Active	Not Active	Not Active	
CCCN(CCC)S(=O)(=O)c1ccc(C(=O)O)cc1 [PROBENECID]	Not Active	Not Active	Not Active	Not Active	Not Active	Not Active	Not Active	Not Active	Not Active	
CCCOc1ccc(C(=O)OCCN(CC)CC)cc1N [PROPARACAINE]	Not Active	Not Active	Not Active	Not Active	Not Active	Not Active	Not Active	Not Active	Not Active	
Oc1cccc(O)c1O [PYROGALLOL]	Not Active	Not Active	Not Active	Not Active	Not Active	Not Active	Not Active	Not Active	Not Active	
